# Laboratory results as given in ChEMBL document CHEMBL1149805, “Antibacterial activity of a novel series of 3-bromo-4-(1H-3-indolyl)-2,5-dihydro-1H-2,5-pyrroledione derivatives--an extended structure-activity relationship study” (Eur J Med Chem, 2008).
# Active and inactive are the calls of the source. How the calls were made is not given here.
# Legend:
# Staphylococcus aureus = test: Antibacterial activity against Staphylococcus aureus 134/93 after 24 hrs by broth microdilution method; format: functional; conditions: for MIC: Staphylococcus aureus, 134/93, 24 h
# Escherichia coli = test: Antibacterial activity against Escherichia coli after 24 hrs by broth microdilution method; format: functional, organism-based
# [1] = Partition coefficient, log P of the compound; format: physicochemical; conditions: octanol/water
# [2] = system: Mycolicibacterium smegmatis; test: Antibacterial activity against Mycobacterium smegmatis SG987 after 24 hrs by broth microdilution method; format: functional; conditions: for MIC: Mycolicibacterium smegmatis, SG987, 24 h
# Candida albicans = test: Antibacterial activity against Candida albicans after 24 hrs by broth microdilution method; format: functional, organism-based
Compound,-logMIC (Staphylococcus aureus),MIC (Staphylococcus aureus) [µM],Activity (Escherichia coli),logP [1],-logMIC [2],MIC [2] [µM],Activity (Candida albicans)
COc1ccc(-c2[nH]c3c(C)cccc3c2C2=C(Br)C(=O)NC2=O)cc1,5.7,2,inactive,3.12,4.5,30.4,inactive
CCCCCOc1ccc2[nH]c(-c3ccccc3)c(C3=C(Br)C(=O)NC3=O)c2c1,4.6,27,inactive,3.75,4.6,27.5,inactive
CCc1cccc2c(C3=C(Br)C(=O)NC3=O)c(-c3ccccc3)[nH]c12,5.7,2.51,inactive,3.42,4.5,31.7,inactive
O=C(CCCCc1[nH]c2ccccc2c1C1=C(Br)C(=O)NC1=O)Nc1ccccc1,5.8,1.7,inactive,2.56,4.6,26,inactive
Cc1ccc(NC(=O)CCCc2[nH]c3ccccc3c2C2=C(Br)C(=O)NC2=O)cc1,5.8,1.58,inactive,2.56,4.6,27,inactive
CCCc1cccc2c(C3=C(Br)C(=O)NC3=O)c(-c3ccc(OC)cc3)[nH]c12,6.3,0.5,inactive,3.58,4.8,14.2,inactive
CCc1ccc2[nH]c(-c3cccc(OC)c3)c(C3=C(Br)C(=O)NC3=O)c2c1,6.3,0.5,inactive,3.35,5.4,3.98,inactive
CCOc1ccc2[nH]c(-c3ccccc3)c(C3=C(Br)C(=O)NC3=O)c2c1,5.4,3.8,inactive,2.77,4.5,30.4,inactive
Cc1cccc2c(C3=C(Br)C(=O)NC3=O)c(-c3ccccc3)[nH]c12,5.4,3.98,inactive,3.19,4.5,32.6,inactive
Cc1ccccc1NC(=O)CCCc1[nH]c2ccccc2c1C1=C(Br)C(=O)NC1=O,6.5,0.32,inactive,2.56,4.8,17.1,inactive
COc1ccc(-c2[nH]c3ccc(C)cc3c2C2=C(Br)C(=O)NC2=O)cc1,6.9,0.12,inactive,2.85,5.1,7.6,inactive
CCCCc1cccc2c(C3=C(Br)C(=O)NC3=O)c(-c3ccccc3)[nH]c12,6.6,0.25,inactive,3.88,4.8,14.7,inactive
O=C(CCc1[nH]c2ccccc2c1C1=C(Br)C(=O)NC1=O)Nc1ccccc1,6.7,0.18,inactive,2.42,4.7,21,inactive
O=C(CCCCCc1[nH]c2ccccc2c1C1=C(Br)C(=O)NC1=O)Nc1ccccc1,7,0.1,inactive,2.68,4.6,26,inactive
CCCCc1ccc2[nH]c(-c3ccc(OC)cc3)c(C3=C(Br)C(=O)NC3=O)c2c1,6.4,0.44,inactive,3.83,5.5,3.4,inactive
COc1cccc(-c2[nH]c3ccc(OC)cc3c2C2=C(Br)C(=O)NC2=O)c1,5.7,1.9,inactive,2.79,4.8,15.8,inactive
COc1ccc2[nH]c(-c3ccccc3)c(C3=C(Br)C(=O)NC3=O)c2c1,6,1,inactive,2.48,4.5,31.5,inactive
